Measurements taken from US20170119776A1, “CHIRAL 2,5-DISUBSTITUTED CYCLOPENTANECARBOXYLIC ACID DERIVATIVES AND USE THEREOF” (BAYER PHARMA AKTIENGESELLSCHAFT, priority 2014, published 2017).

Assays:
Type in all cases: biochemical
MMP-9 of the rat = molecular target: T1, MMP-9 of the rat (Rattus norvegicus, UniProt P50282); test: In vitro MMP-9 inhibition test of the rat
T1 construct: purchased R&D Systems 5427-MM

MMP-3 = molecular target: T2, MMP-3 (Homo sapiens, UniProt P08254); test: In vitro MMP-3 inhibition test
T2 construct: purchased R&D Systems 513-MP
Source text: (§1) The activity strength of the compounds according to the invention towards other MMPs (and therefore their selectivity) is likewise ascertained in in vitro inhibition tests. The MMP-mediated amidolytic cleavage of a suitable peptide substrate also leads here to a fluorescent light increase. The signal intensity of the fluorescent light is directly proportional to the enzyme activity. The active concentration of a test compound at which half of the enzyme is inhibited (50% signal intensity of the fluorescent light) is given as IC50 value.
Recombinant MMP-3 (R&D Systems, 513-MP) is chemically activated in accordance with the manufacturer's instructions using APMA. 1 μl of the test compound to be analysed (as a solution in DMSO, suitable concentrations e.g. 1 nM to 30 μM) is pipetted into 24 μl of activated enzyme (final concentration e.g. 2 nM) in reaction buffer (50 mM Tris/HCl pH 7.5, 10 mM CaCl2, 150 mM NaCl, 0.05% Brij®-35) in a white 384-hole microtiter plate (MTP). The enzymatic reaction is started by adding the intramolecularly quenched substrate Mca-Arg-Pro-Lys-Pro-Val-Glu-Nval-Trp-Arg-Lys(Dnp)-NH2 (final concentration e.g. 10 μM; R&D Systems, ES-002), such that a total test volume of 50 μl results. The progress of the MMP-3 reaction is measured by measuring the fluorescence intensity (excitation 320 nm, emission 410 nm) over a suitable period (e.g. over 120 min at a temperature of 32° C.).
(§2) The IC50 values were determined for racemates and enantiomers from differently generated DMSO stock solutions. Whereas an automatically produced DMSO stock solution from the internal substance logistics was used for racemates by means of a standard method, in the case of enantiomers a freshly produced, manually prepared DMSO stock solution was used in each case for a more precise direct comparison of the enantiomers with one another.

[1] = molecular target: T3, human macrophage elastase (HME/hMMP-12) (Homo sapiens, UniProt P39900); test: In vitro HME inhibition test (standard / high-sensitivity), without BSA; settings: absence of serum albumin (BSA)
T3 construct: 0.5 nM HME; purchased R&D Systems 917-MP
Source text: (§3) The activity of the compounds according to the invention towards HME (MMP-12) is ascertained in an in vitro inhibition test. The HME-mediated amidolytic cleavage of a suitable peptide substrate leads herein to a fluorescent light increase. The signal intensity of the fluorescent light is directly proportional to the enzyme activity. The active concentration of a test compound at which half of the enzyme is inhibited (50% signal intensity of the fluorescent light) is given as IC50 value.
In a 384 hole microtiter plate, in a test volume of in total 41 μl of the test buffer (0.1 M HEPES pH 7.4, 0.15 M NaCl, 0.03 M CaCl2, 0.004 mM ZnCl2, […], 0.005% Brij®), the enzyme (0.5 nM HME; R&D Systems, 917-MP, autocatalytic activation according to the manufacturer's instructions) and the intramolecularly quenched substrate [5 μM Mca-Pro-Leu-Gly-Leu-Glu-Glu-Ala-Dap(Dnp)-NH2; Bachem, M-2670] are incubated in the absence and presence of the test substance (as solution in DMSO) for two hours at 37° C. The fluorescent light intensity of the test batches is measured (excitation 323 nm, emission 393 nm). The IC50 values are ascertained by plotting the fluorescent light intensity against the active ingredient concentration.
If subnanomolar IC values are produced for high potent test substances in the standard HME inhibition test described above, then a modified test is used for their more precise determination. Here, a ten-fold lower enzyme concentration is used (final concentration e.g. 0.05 nM), in order to achieve an increased sensitivity of the test. The incubation time of the test is accordingly chosen to be longer (e.g. 16 hours).
(§4) Table 1 below gives the IC50 values from these HME inhibition tests for the working examples of the present invention and also for two structurally related comparison compounds from the prior art (as racemate or separated enantiomers)→(sometimes as average values from several independent individual determinations and rounded to two significant places). The IC50 values were determined for racemates and enantiomers from differently generated DMSO stock solutions. Whereas an automatically created DMSO stock solution from the internal substance logistics was used for racemates by means of a standard method, for enantiomers and for a more precise direct comparison of the enantiomers with one another, in each case a freshly produced, manually prepared DMSO stock solution was used.

MMP-9 = molecular target: T4, MMP-9 (Homo sapiens, UniProt P14780); test: In vitro MMP-9 inhibition test
T4 construct: purchased R&D Systems 911-MP
Source text: as §1
Recombinant MMP-9 (R&D Systems, 911-MP) is chemically activated in accordance with the manufacturer's instructions using APMA. 1 μl of the test compound to be analysed (as a solution in DMSO, suitable concentrations e.g. 1 nM to 30 μM) is pipette into 24 μl of activated enzyme (final concentration e.g. 0.1 nM) in reaction buffer (50 mM Tris/HCl pH 7.5, 10 mM CaCl2, 150 mM NaCl, 0.05% Brij®-35) in a white 384-hole microtiter plate (MTP). The enzymatic reaction is started by adding the intramolecularly quenched substrate Mca-Pro-Leu-Gly-Leu-Dpa(Dnp)-Ala-Arg-NH2 (final concentration e.g. 10 μM; R&D Systems, ES-001), such that a total test volume of 50 μl results. The progress of the MMP-9 reaction is measured by measuring the fluorescence intensity (excitation 320 nm, emission 410 nm) over a suitable period (e.g. over 120 min at a temperature of 32° C.).
as §2

[2] = molecular target: T3, human macrophage elastase (HME/hMMP-12); test: In vitro HME inhibition test in the presence of serum albumin (2% BSA); settings: presence of serum albumin (BSA, 2% w/w)
Source text: as §3
This test corresponds to the standard HME inhibition test described above, but using a modified reaction buffer. This reaction buffer additionally comprises bovine serum albumin (BSA, fatty acid-free, A6003, Sigma-Aldrich) of a final concentration of 2% (w/w), which corresponds to approximately half of the physiological serum albumin content.
as §4

T2 sequence (P08254 100-477): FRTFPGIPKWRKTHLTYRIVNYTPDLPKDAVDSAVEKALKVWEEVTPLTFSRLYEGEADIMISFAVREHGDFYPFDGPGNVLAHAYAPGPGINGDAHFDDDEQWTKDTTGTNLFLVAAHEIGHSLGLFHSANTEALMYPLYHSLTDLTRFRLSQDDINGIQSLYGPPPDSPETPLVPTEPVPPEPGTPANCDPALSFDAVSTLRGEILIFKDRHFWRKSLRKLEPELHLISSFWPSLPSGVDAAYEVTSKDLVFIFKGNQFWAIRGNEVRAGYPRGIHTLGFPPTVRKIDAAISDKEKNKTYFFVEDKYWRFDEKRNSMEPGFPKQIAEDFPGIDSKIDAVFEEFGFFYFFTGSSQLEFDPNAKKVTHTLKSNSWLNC
T3 sequence (P39900 106-470): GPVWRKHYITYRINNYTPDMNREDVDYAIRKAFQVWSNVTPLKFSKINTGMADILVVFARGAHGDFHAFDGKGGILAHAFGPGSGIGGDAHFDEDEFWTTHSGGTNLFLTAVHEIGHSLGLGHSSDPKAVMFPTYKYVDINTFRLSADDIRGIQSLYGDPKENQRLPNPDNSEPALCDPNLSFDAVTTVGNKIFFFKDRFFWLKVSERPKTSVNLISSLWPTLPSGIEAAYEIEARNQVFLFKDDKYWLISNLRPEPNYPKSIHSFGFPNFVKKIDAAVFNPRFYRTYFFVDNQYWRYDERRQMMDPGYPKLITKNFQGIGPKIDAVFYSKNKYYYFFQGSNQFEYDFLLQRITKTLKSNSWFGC
T1 sequence (P50282 108-708): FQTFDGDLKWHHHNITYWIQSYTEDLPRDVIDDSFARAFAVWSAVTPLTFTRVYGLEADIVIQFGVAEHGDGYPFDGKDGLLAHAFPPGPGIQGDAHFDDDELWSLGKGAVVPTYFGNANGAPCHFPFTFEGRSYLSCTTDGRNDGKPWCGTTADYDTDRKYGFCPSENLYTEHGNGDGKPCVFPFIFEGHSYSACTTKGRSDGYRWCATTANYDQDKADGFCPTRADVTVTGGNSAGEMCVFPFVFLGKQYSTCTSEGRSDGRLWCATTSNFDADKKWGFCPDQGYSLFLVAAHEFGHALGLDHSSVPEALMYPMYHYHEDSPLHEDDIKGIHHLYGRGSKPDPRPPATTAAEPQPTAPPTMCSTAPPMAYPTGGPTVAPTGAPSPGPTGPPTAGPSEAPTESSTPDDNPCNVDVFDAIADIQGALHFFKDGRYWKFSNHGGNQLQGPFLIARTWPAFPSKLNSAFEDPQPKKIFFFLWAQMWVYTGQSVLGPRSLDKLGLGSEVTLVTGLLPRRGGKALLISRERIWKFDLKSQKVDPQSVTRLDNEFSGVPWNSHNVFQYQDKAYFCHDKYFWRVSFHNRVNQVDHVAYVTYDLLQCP
T4 sequence (P14780 107-707 limits assumed): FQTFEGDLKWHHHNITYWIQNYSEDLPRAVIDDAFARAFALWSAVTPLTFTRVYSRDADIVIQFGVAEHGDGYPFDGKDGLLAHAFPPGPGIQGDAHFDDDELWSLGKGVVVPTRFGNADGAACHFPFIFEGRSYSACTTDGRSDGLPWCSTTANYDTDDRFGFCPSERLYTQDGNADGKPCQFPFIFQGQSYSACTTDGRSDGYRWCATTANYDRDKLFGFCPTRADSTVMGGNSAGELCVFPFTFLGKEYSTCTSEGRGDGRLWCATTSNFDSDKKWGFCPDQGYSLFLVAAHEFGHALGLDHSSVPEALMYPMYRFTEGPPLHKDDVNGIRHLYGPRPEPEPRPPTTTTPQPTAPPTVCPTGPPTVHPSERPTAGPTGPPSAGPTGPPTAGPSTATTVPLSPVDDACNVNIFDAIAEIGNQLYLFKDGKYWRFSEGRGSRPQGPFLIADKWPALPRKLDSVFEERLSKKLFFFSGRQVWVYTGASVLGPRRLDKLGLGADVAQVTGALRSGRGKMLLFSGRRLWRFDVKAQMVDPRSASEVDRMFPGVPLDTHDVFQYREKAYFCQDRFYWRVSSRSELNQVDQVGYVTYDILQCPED

| SMILES | IC50 (MMP-9 of the rat) | IC50 (MMP-3) | IC50 [1] | IC50 (MMP-9) | IC50 [2] |
| --- | --- | --- | --- | --- | --- |
| O=C(O)[C@H]1[C@H](Cn2nnc3ccccc3c2=O)CC[C@@H]1C(=O)c1ccc(-c2ccc(Cl)cc2)cc1 (racemic) [Comparative Example A-1, (1RS,2RS,5SR)-2-[(4′-chlorobiphenyl-4-yl)carbonyl]-5-[(4-oxo-1,2,3-benzotriazin-3(4H)-yl)methyl]cyclopentanecarboxylic acid (racemate)] | 4.6 nM | 49 nM | 0.043 nM | 1.9 nM |  |
| CCCCCOc1ccc(C(=O)CC(CCn2nnc3ccccc3c2=O)C(=O)O)cc1 (racemic) [Comparative Example B-1, (+/−)-4-Oxo-2-[2-(4-oxo-1,2,3-benzotriazin-3(4H)-yl)ethyl]-4-[4-(pentyloxy)phenyl]butanoic acid (racemate)] | 3200 nM | 9150 nM | 1.5 nM | 1400 nM |  |
| O=C(O)[C@H]1[C@H](Cn2nnc3ccccc3c2=O)CC[C@@H]1C(=O)c1ccc(OCc2ccccc2)cc1 (racemic) [Example 1, (+/−)-(1RS,2RS,5SR)-2-[4-(Benzyloxy)benzoyl]-5-[(4-oxo-1,2,3-benzotriazin-3(4H)-yl)methyl]cyclopentanecarboxylic acid (racemate)] | 110 nM | 390 nM | 0.059 nM | 30 nM |  |
| CCCCCOc1ccc(C(=O)CC(CCn2nnc3ccccc3c2=O)C(=O)O)cc1 (single isomer, unassigned; enantiomer 1) [Comparative Example B-2, (+)-4-Oxo-2-[2-(4-oxo-1,2,3-benzotriazin-3(4H)-yl)ethyl]-4-[4-(pentyloxy)phenyl]butanoic acid (enantiomer 1)] | 1350 nM | 6600 nM | 1.6 nM | 625 nM | 170 nM |
| O=C(O)[C@@H]1[C@@H](Cn2nnc3ccccc3c2=O)CC[C@H]1C(=O)c1ccc(-c2ccc(Cl)cc2)cc1 (single isomer, unassigned; enantiomer 2) [Comparative Example A-3, (1RS,2RS,5SR)-2-[(4′-Chlorobiphenyl-4-yl)carbonyl]-5-[(4-oxo-1,2,3-benzotriazin-3(4H)-yl)methyl]cyclopentanecarboxylic acid (enantiomer 2)] | 3.3 nM | 22.5 nM | 0.018 nM | 1.1 nM | 5.4 nM |
| O=C(O)[C@H]1[C@H](Cn2nnc3ccccc3c2=O)CC[C@@H]1C(=O)c1ccc(OCc2ccccc2)cc1 [Example 2, (+)-(1S,2S,5R)-2-[4-(Benzyloxy)benzoyl]-5-[(4-oxo-1,2,3-benzotriazin-3(4H)-yl)methyl]cyclopentanecarboxylic acid] | 46.5 nM | 175 nM | 0.071 nM | 23 nM | 8.4 nM |
